Measurements: patent publication US10654808B2, “Tyrosine kinase inhibitor and pharmaceutical composition comprising same” (GUANGDONG RAYNOVENT BIOTECH CO., LTD., priority 2015, dated 2020)

Columns and labels:
Format in all cases: biochemical
PDGFRB = molecular target: T1, PDGFRB (Homo sapiens, UniProt P09619); assay: Z'-LYTE in vitro enzyme activity assay, PDGFRB; conditions: 100 μM ATP, 60 minutes, room temperature; read-out: IC50 detected by Z'-LYTE, PDGFRB
T1 construct: purchased Millipore
Procedure: (§1) The enzyme activity was measured by Z′-LYTE™ Detection Kinase Assay. The IC50 value of the compounds was used as an index to evaluate the inhibitory effect of the compounds on VEGFR2, FGFR1 and PDGFRB.
(§2) Recombinant human VEGFR2 and FGFR1 proteases were purchased from Life technology, PDGFRB Protease was purchased from Millipore.
(§3) Z-LYTE™ Kit Tyr1 and Tyr4 were purchased from Life technology. Multi-microplate reader, Envision (PerkinElmer) read board was used.
(§4) The test compounds were diluted 3 times with a concentration gradient, the final concentration was from 10 μM to 0.17 nM with a total of 11 concentrations, and each concentration had two parallel holes; the content of DMSO in the assay was 1%.
(§5) 40 nM PDGFRB protein kinase, 2 μM Tyr4 peptide, 100 μM ATP, 50 mM HEPES (pH 7.5), 10 mM MgCl2, 1 mM EGTA, 0.01% BRIJ-35, 2 mM MnCl2, 1 mM DTT. The detector plate was Black Proxiplate 384-Plus plate (PerkinElmer), the reaction was performed at room temperature for 60 minutes, and the reaction system was 10 μl.
(§6) The reaction was stopped by adding 5 μl of DV reagent B (1:128) to the kinase reaction solution and incubated at 23° C. for 60 minutes. The Envision instrument was used to read the plate.
(§7) The data was converted to phosphorylation rate and inhibition rate and the 4 parameter curve fitting (Model 205 in XLFIT5, iDBS) was used to get IC50 data of the compounds.

FGFR1 = molecular target: T2, FGFR1 (Homo sapiens, UniProt P11362); assay: Z'-LYTE in vitro enzyme activity assay, FGFR1; conditions: 25 μM ATP, 60 minutes, room temperature; read-out: IC50 detected by Z'-LYTE, FGFR1
T2 construct: purchased Life technology
T2 sequence (P11362 22-822): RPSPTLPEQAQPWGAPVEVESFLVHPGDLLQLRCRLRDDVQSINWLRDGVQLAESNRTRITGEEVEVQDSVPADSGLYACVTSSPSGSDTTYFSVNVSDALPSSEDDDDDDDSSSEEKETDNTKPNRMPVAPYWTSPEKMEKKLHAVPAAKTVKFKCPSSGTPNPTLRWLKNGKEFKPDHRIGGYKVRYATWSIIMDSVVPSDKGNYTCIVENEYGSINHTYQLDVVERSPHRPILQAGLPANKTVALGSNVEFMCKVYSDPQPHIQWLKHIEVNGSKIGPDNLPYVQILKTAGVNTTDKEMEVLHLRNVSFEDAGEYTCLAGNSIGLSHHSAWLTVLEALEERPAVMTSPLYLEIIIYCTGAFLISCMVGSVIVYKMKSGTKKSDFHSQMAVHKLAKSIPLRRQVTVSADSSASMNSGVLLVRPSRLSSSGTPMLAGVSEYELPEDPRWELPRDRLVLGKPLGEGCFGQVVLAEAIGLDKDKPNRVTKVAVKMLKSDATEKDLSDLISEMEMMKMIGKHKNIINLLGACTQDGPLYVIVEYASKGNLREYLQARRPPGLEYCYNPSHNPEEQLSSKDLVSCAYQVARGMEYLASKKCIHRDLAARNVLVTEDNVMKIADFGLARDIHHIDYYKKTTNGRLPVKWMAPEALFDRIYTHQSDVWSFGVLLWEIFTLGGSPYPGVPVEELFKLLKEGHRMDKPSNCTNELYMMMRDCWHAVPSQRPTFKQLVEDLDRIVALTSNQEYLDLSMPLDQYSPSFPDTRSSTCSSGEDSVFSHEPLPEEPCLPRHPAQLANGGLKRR
Procedure: as §1, §2, §3, §4
as §5, with “1” for “40”, “FGFR1” for “PDGFRB”, “25” for “100”
as §6, §7

VEGFR2 = molecular target: T3, VEGFR2 (Homo sapiens, UniProt P35968); assay: Z'-LYTE in vitro enzyme activity assay, VEGFR2; conditions: 100 μM ATP, 60 minutes, room temperature; read-out: IC50 detected by Z'-LYTE, VEGFR2
T3 construct: purchased Life technology
T3 sequence (P35968 20-1356): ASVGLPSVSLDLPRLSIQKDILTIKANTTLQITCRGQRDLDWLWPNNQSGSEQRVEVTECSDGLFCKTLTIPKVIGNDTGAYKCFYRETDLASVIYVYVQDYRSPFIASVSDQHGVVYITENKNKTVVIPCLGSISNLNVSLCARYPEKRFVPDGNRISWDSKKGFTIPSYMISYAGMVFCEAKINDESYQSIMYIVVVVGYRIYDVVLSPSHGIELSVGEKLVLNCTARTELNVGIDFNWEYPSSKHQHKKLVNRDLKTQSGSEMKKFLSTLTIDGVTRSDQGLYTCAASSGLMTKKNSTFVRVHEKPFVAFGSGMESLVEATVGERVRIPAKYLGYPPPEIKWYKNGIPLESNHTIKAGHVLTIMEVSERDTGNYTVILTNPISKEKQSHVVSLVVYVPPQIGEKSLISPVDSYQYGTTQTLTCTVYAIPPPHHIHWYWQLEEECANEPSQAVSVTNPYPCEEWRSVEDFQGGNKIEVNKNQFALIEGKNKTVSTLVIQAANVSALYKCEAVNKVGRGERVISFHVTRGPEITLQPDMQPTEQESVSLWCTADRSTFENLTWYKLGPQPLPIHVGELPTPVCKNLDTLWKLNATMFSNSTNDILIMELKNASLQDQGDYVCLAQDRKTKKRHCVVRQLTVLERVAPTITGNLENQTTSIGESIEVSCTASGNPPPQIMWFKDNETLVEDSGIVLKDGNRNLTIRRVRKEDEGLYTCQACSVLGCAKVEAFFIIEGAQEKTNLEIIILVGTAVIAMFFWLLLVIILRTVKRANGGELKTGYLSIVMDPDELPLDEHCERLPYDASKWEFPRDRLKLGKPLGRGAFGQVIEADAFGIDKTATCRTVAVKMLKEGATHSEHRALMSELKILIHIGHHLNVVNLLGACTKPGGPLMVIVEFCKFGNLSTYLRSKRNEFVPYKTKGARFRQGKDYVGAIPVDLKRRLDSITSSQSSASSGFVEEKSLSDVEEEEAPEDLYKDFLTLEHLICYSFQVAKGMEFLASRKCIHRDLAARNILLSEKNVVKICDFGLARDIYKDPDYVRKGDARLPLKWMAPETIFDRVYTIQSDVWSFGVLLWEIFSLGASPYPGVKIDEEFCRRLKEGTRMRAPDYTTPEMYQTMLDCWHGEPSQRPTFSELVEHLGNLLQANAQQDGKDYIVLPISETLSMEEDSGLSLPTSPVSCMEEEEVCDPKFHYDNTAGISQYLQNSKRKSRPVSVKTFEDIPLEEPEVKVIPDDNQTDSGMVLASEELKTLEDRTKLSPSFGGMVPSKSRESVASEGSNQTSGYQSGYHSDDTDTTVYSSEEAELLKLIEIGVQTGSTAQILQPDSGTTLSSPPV
Procedure: as §1, §2, §3, §4
3 nM VEGFR2 protein kinase, 2 μM Tyr1 peptide, 100 μM ATP, 50 mM HEPES (pH 7.5), 10 mM MgCl2, 1 mM EGTA, 0.01% BRIJ-35. The detector plate was Black Proxiplate 384-Plus plate (PerkinElmer), the reaction was performed at room temperature for 60 minutes, and the reaction system was 10 μl.
as §6, §7

T1 sequence (P09619 33-1106): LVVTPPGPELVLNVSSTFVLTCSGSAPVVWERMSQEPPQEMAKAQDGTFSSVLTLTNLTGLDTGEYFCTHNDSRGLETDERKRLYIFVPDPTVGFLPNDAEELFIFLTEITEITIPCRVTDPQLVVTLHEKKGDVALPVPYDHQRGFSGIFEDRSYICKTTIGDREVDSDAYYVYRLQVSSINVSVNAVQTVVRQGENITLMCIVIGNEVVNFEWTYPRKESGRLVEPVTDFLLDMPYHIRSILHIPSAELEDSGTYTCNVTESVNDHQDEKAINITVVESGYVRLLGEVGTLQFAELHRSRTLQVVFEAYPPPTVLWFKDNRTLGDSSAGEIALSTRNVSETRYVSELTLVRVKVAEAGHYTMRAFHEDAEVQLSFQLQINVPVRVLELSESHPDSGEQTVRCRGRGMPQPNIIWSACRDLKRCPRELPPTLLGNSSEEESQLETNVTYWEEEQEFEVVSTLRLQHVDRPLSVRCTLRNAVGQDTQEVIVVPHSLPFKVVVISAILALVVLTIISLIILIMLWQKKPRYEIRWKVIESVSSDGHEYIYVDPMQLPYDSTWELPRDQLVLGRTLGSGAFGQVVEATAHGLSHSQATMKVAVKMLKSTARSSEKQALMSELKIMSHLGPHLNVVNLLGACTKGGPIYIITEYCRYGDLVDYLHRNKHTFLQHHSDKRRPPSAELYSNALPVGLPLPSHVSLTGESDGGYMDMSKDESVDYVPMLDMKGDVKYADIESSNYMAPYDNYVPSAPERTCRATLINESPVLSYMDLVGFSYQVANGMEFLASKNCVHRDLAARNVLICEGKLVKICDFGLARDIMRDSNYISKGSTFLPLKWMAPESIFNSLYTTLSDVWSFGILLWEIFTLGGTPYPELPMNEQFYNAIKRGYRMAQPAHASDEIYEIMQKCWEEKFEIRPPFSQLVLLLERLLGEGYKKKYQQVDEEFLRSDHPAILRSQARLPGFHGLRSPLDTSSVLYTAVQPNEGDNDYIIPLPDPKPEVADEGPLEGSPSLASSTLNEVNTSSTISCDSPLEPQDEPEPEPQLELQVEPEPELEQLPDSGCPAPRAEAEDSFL

Compound	IC50 (PDGFRB)	IC50 (FGFR1)	IC50 (VEGFR2)
COc1cc2nccc(Oc3ccc(NC(=S)Nc4ccc(Cl)c(F)c4)c(Cl)c3)c2cc1C(N)=O [Example 3]	200 to 1000 nM	200 to 1000 nM	200 to 1000 nM
COc1cc2nccc(Oc3ccc(NC(=S)Nc4cc[nH]n4)c(Cl)c3)c2cc1C(N)=O [Example 4]	200 to 1000 nM	200 to 1000 nM	50 to 200 nM
COc1cc2nccc(Oc3ccc(NC(=S)NCc4ccncc4)c(Cl)c3)c2cc1C(N)=O [Example 5]	50 to 200 nM	200 to 1000 nM	50 to 200 nM
COc1cc2nccc(Oc3ccc(NC(=S)Nc4cccc(C(F)(F)F)c4)c(Cl)c3)c2cc1C(N)=O [Example 7]	200 to 1000 nM	200 to 1000 nM	50 to 200 nM
COc1cc2nccc(Oc3ccc(NC(=S)NCc4ccc(Cl)cc4)c(Cl)c3)c2cc1C(N)=O [Example 9]	< 50 nM	200 to 1000 nM	200 to 1000 nM
COc1cc2nccc(Oc3ccc(NC(=S)Nc4cccnc4)c(Cl)c3)c2cc1C(N)=O [Example 10]	50 to 200 nM	200 to 1000 nM	50 to 200 nM
COc1cc2nccc(Oc3ccc(NC(=S)NCc4ccccn4)c(Cl)c3)c2cc1C(N)=O [Example 11]	50 to 200 nM	200 to 1000 nM	200 to 1000 nM
COc1cc2nccc(Oc3ccc(NC(=S)NCCc4ccccc4)c(Cl)c3)c2cc1C(N)=O [Example 14]	50 to 200 nM	200 to 1000 nM	200 to 1000 nM
COc1cc2nccc(Oc3ccc(NC(=S)NC4CCOCC4)c(Cl)c3)c2cc1C(N)=O [Example 15]	50 to 200 nM	200 to 1000 nM	200 to 1000 nM
COc1cc2nccc(Oc3ccc(NC(=S)NCc4ccc(F)cc4)c(Cl)c3)c2cc1C(N)=O [Example 17]	50 to 200 nM	200 to 1000 nM	200 to 1000 nM
COc1cc2nccc(Oc3ccc(NC(=S)NCCC#N)c(Cl)c3)c2cc1C(N)=O [Example 18]	200 to 1000 nM	200 to 1000 nM	200 to 1000 nM
COc1cc2nccc(Oc3ccc(NC(=S)NCCN4CCOCC4)c(Cl)c3)c2cc1C(N)=O [Example 19]	< 50 nM	200 to 1000 nM	200 to 1000 nM
COc1cc2nccc(Oc3ccc(NC(=S)NCc4cccnc4)c(Cl)c3)c2cc1C(N)=O [Example 20]	< 50 nM	200 to 1000 nM	50 to 200 nM
COc1cc2nccc(Oc3ccc(NC(=S)N[C@@H](C)CO)c(Cl)c3)c2cc1C(N)=O [Example 22]	50 to 200 nM	200 to 1000 nM	50 to 200 nM
COc1cc2nccc(Oc3ccc(NC(=S)NCCN(C)C)c(Cl)c3)c2cc1C(N)=O [Example 23]	50 to 200 nM	200 to 1000 nM	200 to 1000 nM
COc1cc2nccc(Oc3ccc4c(c3)CCN4C(=S)NC3CC3)c2cc1C(N)=O [Example 24]	200 to 1000 nM	200 to 1000 nM	200 to 1000 nM
Cc1c(OCC(C)O)cn2ncnc(Oc3ccc(NC(=S)NC4CC4)c(Cl)c3)c12 (stereo not drawn) [Example 25]	200 to 1000 nM	200 to 1000 nM	200 to 1000 nM
COc1cc2nccc(Oc3ccc4c(c3)CCCN4C(=S)NC3CC3)c2cc1C(N)=O [Example 26]	200 to 1000 nM	200 to 1000 nM	50 to 200 nM
COc1cc2nccc(Oc3ccc(NC(=S)NC4CC(O)C4)c(Cl)c3)c2cc1C(N)=O (stereo not drawn) [Example 27]	50 to 200 nM	200 to 1000 nM	50 to 200 nM
COc1cc2nccc(Oc3ccc(NC(=S)NCCCO)c(Cl)c3)c2cc1C(N)=O [Example 29]	50 to 200 nM	200 to 1000 nM	50 to 200 nM
COc1cc2nccc(Oc3ccc(NC(=S)NCC(C)(C)O)c(Cl)c3)c2cc1C(N)=O [Example 30]	200 to 1000 nM	200 to 1000 nM	200 to 1000 nM
CCN(CC)CCOc1cc2nccc(Oc3ccc(NC(=S)NC4CC4)c(Cl)c3)c2cc1C(N)=O [Example 31]	200 to 1000 nM	200 to 1000 nM	200 to 1000 nM
